Test results taken from patent US20200360331A1, “COMPOSITIONS COMPRISING 15-HEPE AND/OR 15-HETrE AND METHODS OF TREATING OR PREVENTING CARDIOMETABOLIC DISEASE, METABOLIC SYNDROME, AND/OR RELATED DISEASES” (Afimmune Limited, priority 2019, published 2020).
“Also recorded” adds a separate entry of the source.

Tests used:
[1] = tested on: NAFLD patients; test: Phase IIa NAFLD study: alkaline phosphate (ALP); format: in vivo, human; conditions: 2 g
Procedure: The study was planned to include 96 evaluable patients with 32 patients randomized per treatment group.
Clinical Laboratory Safety Tests: Safety tests were performed for hematology, serum biochemistry, coagulation, lipid profile, and urinalysis: Blood and urine samples were taken as per the Study Flow Chart in Table 19 for routine hematology, serum biochemistry, coagulation and urinalysis tests, along with a Lipid Profile. All samples were analyzed in the central laboratory. All subjects were fasted for a minimum of 8 hours prior to blood sampling. […]

[2] = tested on: Collagen Type 1; test: UUO study: quantitative RT-PCR of kidney, Collagen Type 1; format: in vivo, C57BL/6 mice; conditions: UUO mice kidney
Procedure: (§1) Quantitative RT-PCR: Total ribonucleic acid (RNA) was extracted from kidney samples using RNAiso (Takara Bio, Japan) according to the manufacturer's instructions. One μg of RNA was reverse-transcribed using a reaction mixture containing 4.4 micromolar (mM) of magnesium chloride (MgCl2) (F. Hoffmann-La Roche, Switzerland), 40 U RNase inhibitor (Toyobo, Japan), 0.5 mM dNTP (Promega, USA), 6.28 μM random hexamer (Promega), 5× first strand buffer (Promega), 10 mM dithiothreitol (Invitrogen, USA) and 200 U MMLV-RT (Invitrogen) in a final volume of 20 μL. The reaction was carried out for 1 hour at 37° C., followed by 5 minutes at 99° C. Real-time PCR was performed using real-time PCR DICE and TB Green™ Premix Ex Taq™ II (Takara Bio). To calculate the relative microRNA (mRNA) expression level, the expression of each gene (e.g., α-SMA, TIMP-1, TGF-β and Collagen Type 1) was normalized to that of reference gene 36B4 (gene symbol: Rplp0). Information regarding the PCR-primer sets and the plate layout are described in Tables 1 and 2.

[3] = tested on: TIMP-1; test: BDL study: quantitative RT-PCR of liver, TIMP-1; format: in vivo, C57BL/6J mice; conditions: BDL mice liver
Procedure: as §1, with “from liver” for “from kidney”, “4.4 mM” for “4.4 micromolar (mM) of”, “relative mRNA” for “relative microRNA (mRNA)”, “gene (α-SMA,” for “gene (e.g., α-SMA,”, “Tables 8” for “Tables 1”, “and 9.” for “and 2.”

[4] = tested on: TβR-I (type I TGF-β receptor); test: Sucrose density gradient analysis in Mv1Lu cells, TβR-I; format: cell-based, mink
Procedure: Sucrose gradient ultracentrifugation and confocal microscopy were used to identify 15-HEPE induced microdomain translocation of TGF-β receptors by sucrose. Sucrose density gradient analysis of TGF-β receptors was conducted in the plasma membranes of Mv1Lu cells (mink lung epithelial cell) treated with 100 μM of 15-HEPE and an equal volume of DMSO (dimethyl sulfoxide) at 37° C. for 0, 1, 4, and 24 hours, and the cell lysates from these treated cells were subjected to sucrose density gradient ultracentrifugation. The sucrose gradient fractions were then analyzed by Western blot analysis using anti-TβR-I (type I TGF-β receptor), anti-TβR-II (type II TGF-β receptor), anti-TβR-III (type III TGF-β receptor, betaglycan), anti-EGFR (epidermal growth factor receptor), and anti-caveolin-1 antibodies. The lipid raft/caveolae, and non-lipid raft microdomain localization of TβR-I, TβR-II, TβR-III, EGFR and caveolin-1 in the plasma membrane of untreated cells or cells treated with 15-HEPE were assessed to determine the effects of 15-HEPE on the membrane microdomain localization of the TGF-β receptors. […]

[5] = relative mRNA normalized to 36B4, 50 mg/kg PO QD Day 0-13
[6] = relative mRNA normalized to 36B4, 500 mg/kg PO QD Day 0-13

CC/C=C\CC(O)/C=C/C=C\C/C=C\C/C=C\CCCC(=O)O (stereo not shown) [DS102, 15-hydroxy-eicosa-5Z,8Z,11Z,13E,17Z-pentaenoic acid]
alkaline phosphate (ALP) [1]: reduced | Collagen Type 1 gene expression [2, 5]: 11.80 ± 1.78 | Collagen Type 1 gene expression [2, 6]: 14.09 ± 2.88 | TIMP-1 mRNA expression level compared with the Vehicle group ([3]; 500 mg/kg): tended to decrease; also recorded: trend approaching significance | TIMP-1 mRNA expression level vs Vehicle group ([3]; DS102 treatment groups): no significant differences | TIMP-1 gene expression [3, 5]: 43.82 ± 26.19 | TIMP-1 gene expression ([3]; relative mRNA normalized to 36B4, 250 mg/kg PO QD Day 0-13): 30.65 ± 16.80 | TIMP-1 gene expression [3, 6]: 16.09 ± 10.16 | abundance of TβR-I proteins ([4]; 100 μM, 0, 1, 4 and 24 hours): did not affect the abundance of TβR-I proteins | translocation of TβR-I to lipid-raft ([4]; 100 μM, 24 hours): induced translocation of TβR-I to lipid-raft
